{"source": "patent US4849425A", "about": "“Readily absorbable pharmaceutical composition” (Ishihara Sangyo Kaisha Ltd., priority 1985, dated 1989)", "key": {"[1]": {"assay": "Solubility of Compound No. 3 in aqueous cyclodextrin solutions or polyethylene glycol 400 at 25° C. (Test Example 2)", "format": "physicochemical", "description": "0.1 μmol of Compound No. 1 or No. 2 was added to 1 ml of an aqueous solution of each cyclodextrin with a concentration of from 0 to 8 mM, and the mixture was shaken at 25° C. for 100 hours. After completion of the shaking, the mixture was filtered through a millipore filter of 0.45 μm to obtain a filtrate.\nSeparation column: As the packing material, octadecylated silica gel was filled in a stainless steel tube having an internal diameter of from 0.39 to 4.6 mm and a length of from 100 to 300 mm.\nColumn temperature: 30° C.\nMobile phase: Mixture of acetonitrile-water (the mixing ratio was adjusted so that the eluting time of the drug becomes from 5 to 10 minutes).\nWave length for detection: 265 nm\n7.5 mg of […]. was added to 1 ml of an aqueous solution of each cyclodextrin at various concentrations or to 1 ml of polyethylene glycol 400, and the solubility of Compound No. 3 at 25° C. was obtained in the same manner as the Test Example b 1."}, "[2]": {"assay": "Absorbability through the gut, oral suspension in cyclodextrin solutions, plasma concentration in rats (Test Example 3)", "format": "in vivo, Wistar male rats", "details": "40% dimethyl β-type cyclodextrin vs control (0.5% sodium carboxymethyl cellulose), 20 mg/kg, rat", "description": "(§1) 20 mg of Compound No. 3 was taken into a mortar, and 5 ml of an aqueous solution containing 1.7% of β-type cyclodextrin or 2% or 40% of dimethyl β-type cyclodextrin was added under stirring to obtain a suspension of Compound No. 3. The suspension was orally administered by an oral sonde to a group of three Wistar male rats (body weight: 200-250g). The dose of Compound No. 3 was 20 mg/kg rat body weight. Further, Compound No. 3 was likewise suspended in an aqueous solution containing 0.5% of sodium salt of carboxymethyl cellulose, and the suspension was used as the control ( in FIG. 3). After the administration, the blood was periodically sampled, and the plasma was separated. After the removal of protein by acetonitrile, Compound No. 3 in the plasma was quantitatively analyzed by a high speed liquid chromatography as shown in Test Example 1."}, "[3]": {"assay": "Absorbability through the gut, oral, various dispersing solvents, plasma concentration in rats (Test Example 4)", "format": "in vivo, Wistar male rats", "details": "20 mg/kg, rat", "description": "as §1, with “3 was taken into a mortar, and 5 ml of an aqueous solution containing 1.7% of β-type cyclodextrin or 2% or 40% of dimethyl β-type cyclodextrin was added under stirring to obtain a suspension of Compound No.” left out\nThe changes with time of the concentration of Compound No. 3 in the plasma after the oral administration were studied in the same manner as in Test Example 3 by using an aqueous solution of 10% (weight/volume) Polysolvate 80 (Tween 80, manufactured by Nakayai Kagaku K.K.), 10% (weight/volume) polyoxyethylene hardened caster oil 60 (manufactured by Nikko Chemical K.K.), 100% polyethylene glycol 400 or 50% (weight/volume) dimethyl β-type cyclodextrin, as the dispersing solvent for Compound No. 3, and an aqueous solution of 0.5% (weight/volume) sodium salt of carboxymethyl cellulose, as the control. […]"}, "[4]": {"assay": "Rectal suppository, plasma concentration in rats (Test Example 6)", "format": "in vivo, Wistar male rat", "details": "rat; for Concentration in the plasma / concentration at 0.5 h / concentration at 1 h / concentration at 2 h / concentration at 4 h: rectal; for Concentration in the plasma: 0; for concentration at 0.5 h / concentration at 1 h / concentration at 2 h / concentration at 4 h: plasma", "description": "A Witepsol W-35 suppository (weight: about 45 mg) comprising 1.8 mg of Compound No. 3 and 12.5% (weight/volume) of dimethyl β-type cyclodextrin, was administered to the rectum of each Wistar male rat having a body weight of about 90 g (a group of three rats). Then, the blood was periodically sampled from the jugular vein, and the concentration of Compound No. 3 in the plasma was measured. To a control group, a suppository contained no cyclodextrin was administered. It is evident that by the addition of dimethyl β-type cyclodextrin, the absorbability of Compound No. 3 increased."}, "[5]": {"assay": "Oral capsules, plasma concentration in beagle dogs (Test Example 7)", "format": "in vivo", "details": "for Concentration in the plasma: 0", "description": "The capsules prepared in Example 3 corresponding to 20 mg/kg of Compound No. 3 were orally administered to three beagle dogs (male: body weight: 5 kg). Then, the blood was periodically sampled from the branchium vein, and the concentration of Compound No. 3 in the plasma was measured. To the control group, a suspension of Compound No. 3 (20 mg/ml) in an aqueous solution containing 0.5% of sodium salt of carboxymethyl cellulose was administered. It is evident that the present invention, the absorbability of Compound No. 3 increased."}, "[6]": {"system": "L-1210 leukemia cells", "assay": "Antitumour activity against intraperitoneally inoculated L-1210 leukemia, oral administration (Test Example 9)", "format": "in vivo, BDF1 mice", "description": "The pharmacological activities of the pharmaceutical compositions of the present invention were studied.\nTo BDF1 mice (male, […]), L-1210 leukemia cells were intraperitoneally inoculated in an amount of 1×10^6 cells/mouse. One day later and 4 days later, a test drug was orally administered. […]"}, "[7]": {"details": "1.8 mg, Witepsol W-35 suppository, 12.5% (w/v) dimethyl β-type cyclodextrin"}, "[8]": {"details": "1.8 mg, control suppository without cyclodextrin"}, "[9]": {"details": "dog, plasma, po, 20 mg/kg, control, suspension in 0.5% sodium salt of carboxymethyl cellulose"}, "[10]": {"details": "dog, plasma, po, 20 mg/kg, polyethylene glycol 400 capsules of Example 3, oral 20 mg/kg"}}, "data": [{"smiles": "O=C(NC(=O)c1ccccc1[N+](=O)[O-])Nc1ccc(Oc2ncc(Br)cn2)c(Cl)c1", "note": "[Compound No. 3, N-(2-nitrobenzoyl)-N'-[4-(5-bromo-2-pyrimidinyloxy)-3-chlorophenyl]urea]", "values": [{"measurement": "solubility", "setting": "[1]; aqueous dimethyl α-type cyclodextrin, dimethyl α-type cyclodextrin 17.5 mg/ml, aqueous", "result": 0.294, "unit": "µg/mL"}, {"measurement": "solubility", "setting": "[1]; aqueous dimethyl β-type cyclodextrin, dimethyl β-type cyclodextrin 20.0 mg/ml, aqueous", "result": 24.1, "unit": "µg/mL"}, {"measurement": "solubility", "setting": "[1]; aqueous dimethyl β-type cyclodextrin, dimethyl β-type cyclodextrin 140 mg/ml, aqueous", "result": 5180, "unit": "µg/mL"}, {"measurement": "solubility", "setting": "[1]; aqueous dimethyl β-type cyclodextrin, dimethyl β-type cyclodextrin 500 mg/ml, aqueous", "result": 7440, "unit": "µg/mL"}, {"measurement": "solubility", "setting": "[1]; aqueous solution, no additives, aqueous solution containing no additives", "result": 0.024, "unit": "µg/mL"}, {"measurement": "solubility", "setting": "[1]; aqueous trimethyl β-type cyclodextrin, trimethyl β-type cyclodextrin 21.4 mg/ml, aqueous", "result": 1, "unit": "µg/mL"}, {"measurement": "solubility", "setting": "[1]; aqueous trimethyl β-type cyclodextrin, trimethyl β-type cyclodextrin 100 mg/ml, aqueous", "result": 13.4, "unit": "µg/mL"}, {"measurement": "solubility", "setting": "[1]; aqueous trimethyl β-type cyclodextrin, trimethyl β-type cyclodextrin 200 mg/ml, aqueous", "result": 30.4, "unit": "µg/mL"}, {"measurement": "solubility", "setting": "[1]; aqueous α-type cyclodextrin 14.6 mg/ml, α-type cyclodextrin 14.6 mg/ml, aqueous", "result": 0.164, "unit": "µg/mL"}, {"measurement": "solubility", "setting": "[1]; aqueous β-type cyclodextrin 17.0 mg/ml, β-type cyclodextrin 17.0 mg/ml, aqueous", "result": 1.64, "unit": "µg/mL"}, {"measurement": "solubility", "setting": "[1]; polyethylene glycol 400, organic solvent or mixture, polyethylene glycol 400, 100%", "result": 7500, "unit": "µg/mL"}, {"measurement": "concentration in the plasma relative to the control", "setting": "[2]", "result": "about 3.5 times"}, {"measurement": "concentration in the plasma as compared with the control", "setting": "[3]; 50% (w/v) dimethyl β-type cyclodextrin vs 0.5% sodium carboxymethyl cellulose", "result": "about 7.5 times"}, {"measurement": "concentration in the plasma as compared with the control", "setting": "[3]; 100% polyethylene glycol 400 vs 0.5% sodium carboxymethyl cellulose", "result": "about 5 times"}, {"measurement": "Concentration in the plasma", "setting": "[4]; Witepsol W-35 suppository, 1.8 mg, 12.5% (w/v) dimethyl β-type cyclodextrin", "result": 0, "unit": "ng/mL"}, {"measurement": "absorbability", "setting": "[4]; addition of dimethyl β-type cyclodextrin, rectal suppository", "result": "increased"}, {"measurement": "Concentration in the plasma", "setting": "[4]; control suppository without cyclodextrin", "result": 0, "unit": "ng/mL"}, {"measurement": "concentration at 0.5 h", "setting": "[4]; [7]", "result": 320, "unit": "ng/mL"}, {"measurement": "concentration at 1 h", "setting": "[4]; [7]", "result": 480, "unit": "ng/mL"}, {"measurement": "concentration at 2 h", "setting": "[4]; [7]", "result": 940, "unit": "ng/mL"}, {"measurement": "concentration at 4 h", "setting": "[4]; [7]", "result": 990, "unit": "ng/mL"}, {"measurement": "concentration at 0.5 h", "setting": "[4]; [8]", "result": 40, "unit": "ng/mL"}, {"measurement": "concentration at 1 h", "setting": "[4]; [8]", "result": 80, "unit": "ng/mL"}, {"measurement": "concentration at 2 h", "setting": "[4]; [8]", "result": 110, "unit": "ng/mL"}, {"measurement": "concentration at 4 h", "setting": "[4]; [8]", "result": 90, "unit": "ng/mL"}, {"measurement": "Concentration in the plasma", "setting": "[5]; control, suspension in 0.5% sodium salt of carboxymethyl cellulose, oral", "result": 0, "unit": "ng/mL"}, {"measurement": "concentration at 1 h", "setting": "[5]; [9]", "result": 70, "unit": "ng/mL"}, {"measurement": "concentration at 2 h", "setting": "[5]; [9]", "result": 100, "unit": "ng/mL"}, {"measurement": "concentration at 1 h", "setting": "[5]; [10]", "result": 610, "unit": "ng/mL"}, {"measurement": "concentration at 2 h", "setting": "[5]; [10]", "result": 1120, "unit": "ng/mL"}, {"measurement": "concentration at 4 h", "setting": "[5]; dog, plasma, po, 20 mg/kg, polyethylene glycol 400 capsules of Example 3, oral 20 mg/kg, 4 hrs", "result": 1110, "unit": "ng/mL"}, {"measurement": "absorbability", "setting": "[5]; polyethylene glycol 400 capsules of Example 3, oral", "result": "increased"}, {"measurement": "Concentration in the plasma", "setting": "[5]; polyethylene glycol 400 capsules of Example 3, oral 20 mg/kg", "result": 0, "unit": "ng/mL"}, {"measurement": "antitumour activities", "setting": "[6]; only when administered together with the substance specified in the invention", "result": "distinctly observed"}, {"measurement": "T/C", "setting": "[6]; polyethylene glycol 400 + substrate + Compound No. 3, 6.25 mg/kg", "result": 120, "unit": "%"}, {"measurement": "T/C", "setting": "[6]; polyethylene glycol 400 + substrate + Compound No. 3, 12.5 mg/kg", "result": 134, "unit": "%"}, {"measurement": "T/C", "setting": "[6]; polyethylene glycol 400 + substrate + Compound No. 3, 25 mg/kg", "result": 183, "unit": "%"}, {"measurement": "T/C", "setting": "[6]; polyethylene glycol 400 + substrate + Compound No. 3, 50 mg/kg", "result": 95, "unit": "%"}, {"measurement": "antitumour activities", "setting": "[6]; polyethylene glycol 400 absent", "result": "no antitumour activities were observed"}, {"measurement": "T/C", "setting": "[6]; substrate + Compound No. 3 (no polyethylene glycol 400), 6.25 mg/kg", "result": 102, "unit": "%"}, {"measurement": "T/C", "setting": "[6]; substrate + Compound No. 3 (no polyethylene glycol 400), 12.5 mg/kg", "result": 102, "unit": "%"}, {"measurement": "T/C", "setting": "[6]; substrate + Compound No. 3 (no polyethylene glycol 400), 25 mg/kg", "result": 101, "unit": "%"}, {"measurement": "T/C", "setting": "[6]; substrate + Compound No. 3 (no polyethylene glycol 400), 50 mg/kg", "result": 103, "unit": "%"}]}]}
